Measured values published in patent publication US20220119446A1, “BIOMARKERS AND TREATMENT OF NEURONAL INJURY AND NEURODEGENERATION” (Board of Supervisons of Louisiana State University and …, priority 2018, published 2022).
“Also recorded” adds a separate entry of the source. * marks the point of attachment. Boc = CC(C)(C)OC(=O)*

Columns and labels:
Wnt5a promoter A = assay: ChIP assay of cRel binding to Wnt5a promoter A with real-time PCR; assay type: cell-based, human; conditions: for cRel bound to genomic DNA, amplicon 3: RPE cells undergoing UOS, NPD1 added
From the text: Based on the regions found to bind NF-κB members (Table 4), we designed four sets of primers that bound in the proximity or within the regions of interest to perform SYBR green-based real-time PCR detection (FIG. 2, D-F and Table 3). FIGS. 2, D and F and Table 5, also show regions of high probability for methylation, a mechanism for blocking Wnt5a transcription (Vaidya et al. 2016). Micrococcal […] digested genomic DNA fragments from UOS or UOS-plus-NPD1-treated RPE cells, +/−rWnt5a, were pulled down by an antibody against cRel and used to test the four sets of primers. […] Methylation of Region 1 may occur since it was predicted by the Methprimer software (Table 5). […] The results obtained for amplicon 3, indicate competition between the Wnt5a-activated p65 and NPD1-activated cRel (FIG. 2E).
The chromatin immunoprecipitation assay can be performed using SimpleChIP® Plus Enzymatic Chromatin IP Kit (Cell Signaling Technology, Boston, Mass.) following the manufacturer's recommendations including ChIP validated cRel antibody. Positive control Histone H3 antibody and normal serum can be provided by a kit, as well as control primers for human RPL30 Exon 3. Primers A1 to 4 can be designed using Primer-Blast (NCBI, Bethesda, Md.)((Ye et al. 2012) and are depicted in Table 5. The immunoprecipitated samples real-time PCR values can be standardized using 10% of the input chromatin preparation using primers A1, A2, and A3 pooled values and RPL30 Exon 3 values.
The chromatin immunoprecipitation assay was performed using SimpleChIP® Plus Enzymatic Chromatin IP Kit (Cell Signaling Technology, Boston, Mass., USA) following the manufacturer's recommendations including ChIP validated cREL antibody. Positive control Histone H3 antibody and normal serum was provided by the kit, as well as control primers for human RPL30 Exon 3. Primers A1 to 4 were designed using Primer-Blast at NCBI platform (Ye et al., 2012) and are depicted in Table S5. The immunoprecipitated samples real-time PCR values were standardized using 10% of the input chromatin preparation using primers A1, A2, and A3 pooled values and RPL30 Exon 3 values.

rats subjected to MCAo = assay: Transient MCAo: MRI of lesion volume; assay type: in vivo; conditions: rat, 2 h MCAo, Box5 IV 1 h later, day 7
Experimental: The right MCA can be occluded for 2 h by intraluminal filament, as described previously (Belayev et al. 2011). Briefly, the right common carotid artery (CCA) and external carotid artery (ECA) can be exposed through midline neck incision, and then completely isolated from the surrounding nerves. The occipital branches of the ECA and pterygopalatine artery can be ligated. A 4-cm of 3-0 nylon filament, coated with poly-L-lysine can be advanced to the origin of MCA through the proximal ECA via internal carotid artery. The filament can be inserted 20 to 22 mm from the bifurcation of the CCA, according to the animal's body weight. The neck incision can then be closed, and the rats can be returned to their cages. After about 2 h of MCAo, the rats can be re-anesthetized with the same anesthetic combination and the intraluminal filament can be gently removed. […]
In embodiments, high-resolution ex vivo magnetic resonance imaging (MRI) is performed on 4% paraformaldehyde-fixed brains at each time point (days 1, 3 and 7) using an 11.7T Bruker Advance 8.9 cm horizontal bore instrument equipped with an 89 mm (ID) receiver coil (Bruker Biospin, Billerica, Mass., USA). T2-weighted images (T2WI), diffusion weighted images (DWI), 3D volumes and apparent diffusion coefficient (ADC) maps can be collected and analyzed as previously described and known in the art (Obenaus et al. 2011). […]

| Compound | cRel bound to genomic DNA, amplicon 2 (Region 3 and 4) (Wnt5a promoter A; RPE cells under UOS, NPD1 100 nM) | cRel binding, amplicon 4 (Wnt5a promoter A; RPE cells undergoing UOS in the presence of rWnt5a) | cRel bound to genomic DNA, amplicon 3 (Wnt5a promoter A; Wnt5a present) [fold] | cRel bound to genomic DNA, amplicon 3 (Wnt5a promoter A; absence of Wnt5a) | cRel binding to genomic DNA, amplicon A1 (Wnt5a promoter A; RPE cells, UOS or UOS plus NPD1, +/−rWnt5a) | MRI lesion (infarct) volume (rats subjected to MCAo) |
| --- | --- | --- | --- | --- | --- | --- |
| CC/C=C\C[C@H](O)\C=C/C=C/C=C/[C@H](O)C/C=C\C/C=C\CCC(=O)O [NPD1, 10R,17S-dihydroxy-docosa-4Z,7Z,11E,13E,15Z,19Z-hexaenoic acid] | twice the amount of cRel bound | restored the cRel binding to control levels | 10 | more than 20 fold | no differences between treatments | – |
| t-Boc-NH-Met-Asp-Gly-Cys-Glu-Leu-CO2H (Boc-MDGCEL-OH) [Box5] | – | – | – | – | – | steep decreased in the infarcted volume; also recorded: resembling DHA treatment; also recorded: reduces stroke size; also recorded: decreased volume of brain damage |
